For assay [1], the system named is MCF7. The experiment in a line: Cytotoxicity against human MCF7 cells after 24 hrs by MTT assay. It is filed as functional, cell-based. The conditions noted are these: MCF7, 24 h. (Formazan colour is commonly taken as a measure of viable cells.)
The subject of assay [2] is MDA-MB-231. The experiment in a line: Cytotoxicity against human MDA-MB-231 cells after 24 hrs by MTT assay. It is filed as functional, cell-based. The note with it: MDA-MB-231, 24 h.
A further assay has as its system HEK293. The experiment in a line: Cytotoxicity against HEK293 cells after 24 hrs by MTT assay. It is filed as cell-based. The note with it: Homo sapiens, HEK293, 24 h.
For assay [3], the system named is MCF7. The experiment in a line: Decrease in SRD5A1 level in human MCF7 cells at 1 to 10 uM after 24 hrs by ELISA. The class given is functional, cell-based.
In assay [4] the test system is MCF7. Nature of the assay: Decrease in progesterone level in human MCF7 cells at 1 to 10 uM after 24 hrs by ELISA. The class given is functional, cell-based. (In general: ELISA stands for enzyme-linked immunosorbent assay.)
Assay [5] deals with MCF7. The experiment in a line: Decrease in 5alpha-DHP level in human MCF7 cells at 1 to 10 uM after 24 hrs by ELISA. It is filed as functional, cell-based.
For assay [6], the system named is MCF7. Nature of the assay: Induction of mitochondrial membrane potential loss in human MCF7 cells assessed as ratio of green to red fluorescence at 0.5 uM after 24 hrs by JC1 staining based flow cytometric analysis (reference value: 1.41). The class given is functional. For orientation: Flow cytometry measures light scatter and fluorescence of single cells or particles in a stream.

For assay [7], the system named is MDA-MB-231. The experiment in a line: Induction of mitochondrial membrane potential loss in human MDA-MB-231 cells assessed as ratio of green to red fluorescence at 0.5 uM after 24 hrs by JC1 staining based flow cytometric analysis (reference value: 4.55). It is filed as functional.
Assay [8] concerns MCF7. The experiment in a line: Induction of mitochondrial membrane potential loss in human MCF7 cells after 24 hrs by JC1 staining based flow cytometric analysis. It is filed as functional, cell-based.
For assay [9], the system named is MDA-MB-231. The experiment in a line: Induction of apoptosis in human MDA-MB-231 cells after 24 hrs by Annexin-V-FITC/propidium iodide staining based flow cytometric analysis. The class given is functional, cell-based.
The subject of assay [10] is MDA-MB-231. Nature of the assay: Anti-migratory activity against human MDA-MB-231 cells assessed as reduction in cell migration towards wound area at 0.1 uM after 24 hrs by phase contrast microscopic analysis. It is filed as functional, cell-based.
The subject of assay [11] is MDA-MB-231. Nature of the assay: Induction of mitochondrial membrane potential loss in human MDA-MB-231 cells after 24 hrs by JC1 staining based flow cytometric analysis. It is filed as functional, cell-based.
Assay [12] deals with MDA-MB-231. Nature of the assay: Anti-migratory activity against human MDA-MB-231 cells assessed as reduction in cell migration towards wound area at 0.5 to 10 uM after 24 hrs by phase contrast microscopic analysis. It is filed as functional, cell-based.
For assay [13], the system named is MCF7. The experiment in a line: Cell cycle arrest in human MCF7 cells assessed as increase in G2/M population at 0.5 to 10 uM after 24 hrs by propidium iodide staining based flow cytometric analysis. It is filed as functional.
Assay [14] deals with MCF7. The experiment in a line: Decrease in 5alpha-DHP level in human MCF7 cells after 24 hrs by ELISA. It is filed as functional, cell-based.
For assay [15], the system named is MDA-MB-231. Nature of the assay: Cell cycle arrest in human MDA-MB-231 cells assessed as increase in G2/M-phase population after 24 hrs by flow cytometric analysis. It is filed as functional, cell-based.
In assay [16] the test system is MCF7. The experiment in a line: Induction of mitochondrial membrane potential loss in human MCF7 cells assessed as ratio of green to red fluorescence at 5 uM after 24 hrs by JC1 staining based flow cytometric analysis (reference value: 1.41). It is filed as functional.
For assay [17], the system named is MDA-MB-231. The experiment in a line: Induction of mitochondrial membrane potential loss in human MDA-MB-231 cells assessed as ratio of green to red fluorescence at 1 uM after 24 hrs by JC1 staining based flow cytometric analysis (reference value: 4.55). It is filed as functional.
Assay [18] relates to MCF7. Nature of the assay: Anti-invasive activity against human MCF7 cells assessed as inhibition of TGF-beta induced cell invasion at 0.5 to 1 uM after 24 hrs by crystal violet staining based transwell assay. The class given is functional.
The test system of assay [19] is MDA-MB-231. The experiment in a line: Cell cycle arrest in human MDA-MB-231 cells assessed as decrease in S phase population after 24 hrs by flow cytometric analysis. The class given is functional, cell-based.
Assay [20] deals with MCF7. The experiment in a line: Cell cycle arrest in human MCF7 cells assessed as increase in sub-G1 population at 0.5 to 10 uM after 24 hrs by propidium iodide staining based flow cytometric analysis. It is filed as functional.
Assay [21] deals with MDA-MB-231. Nature of the assay: Cell cycle arrest in human MDA-MB-231 cells assessed as increase in sub-G1 population after 24 hrs by flow cytometric analysis. It is filed as functional, cell-based.
Assay [22] has as its system MCF7. The experiment in a line: Induction of mitochondrial membrane potential loss in human MCF7 cells assessed as ratio of green to red fluorescence at 1 uM after 24 hrs by JC1 staining based flow cytometric analysis (reference value: 1.41). It is filed as functional.
The subject of assay [23] is MCF7. The experiment in a line: Induction of apoptosis in human MCF7 cells after 24 hrs by Annexin-V-FITC/propidium iodide staining based flow cytometric analysis. The class given is functional, cell-based.
In assay [24] the test system is MDA-MB-231. The experiment in a line: Induction of mitochondrial membrane potential loss in human MDA-MB-231 cells assessed as ratio of green to red fluorescence at 5 uM after 24 hrs by JC1 staining based flow cytometric analysis (reference value: 4.55). The class given is functional.
In assay [25] the test system is MDA-MB-231. Nature of the assay: Anti-migratory activity against human MDA-MB-231 cells assessed as reduction in cell migration towards wound area at 50 uM after 24 hrs by phase contrast microscopic analysis relative to control. Set-up: scale not given: the % may be the effect or the level left. The class given is functional.

Structures are written as SMILES. Calls of active or inactive are those of the source. The calls are words filed in the database; no cut-off is given here.

With `COc1ccc2c(c1)C1=CC[C@@H]3C[C@@H](OCc4ccccc4)CN3[C@H]1CC2`, the IC50 is above 50 µM in the assay on MCF7 [1], 9.8 µM in the assay with MDA-MB-231 [2] and above 50 µM with HEK293.
As to `C1=C2c3ccccc3CC[C@H]2N2C[C@H](OCc3ccccc3)C[C@H]2C1`, the IC50 was 5.4 µM with MCF7 [1], 35.6 µM with MDA-MB-231 [2] and above 50 µM with HEK293.
On to `CC(C)(C)NC(=O)[C@H]1CC[C@H]2[C@@H]3CC[C@H]4NC(=O)C=C[C@]4(C)[C@H]3CC[C@]12C` [FINASTERIDE], for which the IC50 in the assay with MCF7 [1] was 44.1 µM; with MDA-MB-231 [2], above 50 µM; in the assay with HEK293, above 50 µM. The result in the assay with MCF7 [3] and in the assay on MCF7 [5] was inactive. Besides, the result in the assay on MCF7 [4] was Active.
As for `C1=C2c3ccccc3CC[C@H]2N2CCC[C@H]2C1`, the IC50 with MCF7 [1] was 34.4 µM; in the assay on MDA-MB-231 [2], above 50 µM; in the assay with HEK293, above 50 µM.
`C[C@]12CC=C3c4ccccc4CC[C@@H]3N1CCC2`: the Ratio with MCF7 [6] was 2.51; in the assay with MDA-MB-231 [7], 7.8; with MCF7 [16] it was 8.29; in the assay with MDA-MB-231 [17], 9.35; with MCF7 [22], 4.45; in the assay on MDA-MB-231 [24], 9.045. Further, the Activity result in the assay on MCF7 [8], with MDA-MB-231 [9], in the assay with MDA-MB-231 [11], with MCF7 [14], with MDA-MB-231 [15] and with MDA-MB-231 [19] was “Dose-dependent effect” throughout. Also, the Activity result with MDA-MB-231 [21] was “Dose-dependent effect”; in the assay on MCF7 [23], “Dose-dependent effect”; with MDA-MB-231 [25], 100%. The half-maximal inhibitory concentration (IC50) was 1 µM with MCF7 [1], 1.4 µM with MDA-MB-231 [2] and above 50 µM in the assay with HEK293. For the same compound, the result with MDA-MB-231 [10] was inactive. Moreover, the outcome in the assay with MDA-MB-231 [12], in the assay on MCF7 [13], with MCF7 [3], in the assay on MCF7 [4] and with MCF7 [20] was Active. For the same compound, in the assay with MCF7 [18], the inhibition entry is “Active”.
Take `C1=C2c3ccccc3CC[C@@H]2N2CCC[C@H]2C1`: the results for the half-inhibitory concentration (IC50) in the assay with MCF7 [1], with MDA-MB-231 [2] and in the assay with HEK293 were above 50 µM, 47.2 µM and above 50 µM, respectively.
For the compound `C1=C2c3ccccc3CC[C@@H]2N2C[C@H](OCc3ccccc3)C[C@H]2C1`, the IC50 with MCF7 [1] was 40.6 µM; in the assay on MDA-MB-231 [2], 45.3 µM; in the assay with HEK293, above 50 µM.
As to `C[C@]12CC=C3c4ccccc4CC[C@H]3N1CCC2`, the IC50 in the assay with MCF7 [1] was 4.3 µM; in the assay on MDA-MB-231 [2] it was 33.9 µM; in the assay with HEK293 it was above 50 µM.
On to `COc1ccc2c(c1)C1=CC[C@@H]3C[C@@H](OCc4ccccc4)CN3[C@@H]1CC2`, for which the IC50 in the assay with MCF7 [1] was above 50 µM; with MDA-MB-231 [2], 42.4 µM; in the assay with HEK293 it was above 50 µM.

Usually IC50 stands for the point on the concentration scale where inhibition reaches its midpoint.

Source of the values: ChEMBL document CHEMBL4052754, “Targeting progesterone metabolism in breast cancer with l-proline derived new 14-azasteroids” (Bioorg Med Chem, 2017).
